Data: US20200249194A9, “PROSTATE PROTEASE NANOSENSORS AND USES THEREOF” (Massachusetts Institute of Technology, priority 2017, published 2020)
“Also recorded” adds a separate entry of the source. Non-standard residues stand in square brackets, D forms with d. Primed or numbered codes have the meaning given here. No end group written: not given here. *: point of attachment. 5FAM = O=C1OC2(c3ccc(O)cc3Oc3cc(O)ccc32)c2ccc(C(=O)*)cc21; Biotin = O=C1N[C@H]2[C@H](CS[C@H]2CCCCC(=O)*)N1; CPQ2 = quencher paired with 5FAM as FRET pair; PEG2′ = not defined here; PEG = not defined here; QSY21 = QSY21 quencher; Cy5 = Cy5 fluorophore

Columns and labels:
MMP13, uPA, KLK, MMP = experiment: Substrate cleavage assay of protease nanosensors (FIG. 12A); format: biochemical
Method: Xenograft model 22Rv1 (a non-metastatic tumor, referred to as Tnon-met) is derived from a primary tumor. […] PC3 (a metastatic tumor, referred to as Tmet) is undifferentiated, AR^−, PSA^−, and metastasizes to lymph node (LN), lung, and bone. Multiplexed sensors were selected to classify Tmet from Tnon-met (FIGS. 7A-7F). A substrate cleavage assay was performed (FIG. 12A) with several protease nanosensors (FIGS. 9A-9B and FIGS. 12A-12B).

[1] = test system: 15 selected proteases (MPs and SPs); Thrombin, Factor Xa and human plasma as negative filters; experiment: Cleavage of FRET-paired peptide substrates (free and PEG-coupled) by recombinant proteases; format: biochemical
From the text: With an identified set of MPs and SPs, a panel of substrates was developed to measure their activity. A panel of 58 FRET-paired peptide substrates (labeled T1-58-Q, where Q denotes quenched Table 6) was screened for cleavage by the 15 selected proteases. To account for background cleavage in circulation, Thrombin, Factor Xa, and human plasma were included as negative filters. The library comprised peptides with diverse physiochemical properties to provide broad coverage, and kinetic parameters of cleavage of the FRET-paired substrates by recombinant proteases were measured and z-score normalized by protease. Substrates were grouped by hierarchical clustering to remove substrates with overlapping cleavage patterns, as they would not provide any orthogonal insight, resulting in a down-selected panel of 26 substrates.
For use in vivo, the peptides may be conjugated to a nanoparticle having robust accumulation in the prostate abilities. Thus, a biodistribution study was performed with three fluorophore-labeled carrier candidates and tested for their biodistribution following i.v. injection. […] Thus, the peptide substrates were conjugated to a PEG core and their cleavage profile was tested. […] Further mechanistic understanding of this variability may improve the development of ABN technology by identifying optimal surface presentation. […] Some substrates were cleaved specifically by a single protease on the biomarker list, whereas others were cleaved by multiple or all members of the enzyme family tested (Table 7).

PC3 xenografts = experiment: Urinary reporter signal of ABNs in PC3 xenograft-bearing mice; format: in vivo; details: for relative urine signal, PC3 compared with 22Rv1: 19-plex, mass-encoded reporters, xenografts ~100 mm3; for classification of PC3-bearing from 22Rv1-bearing mice: ROC curve analysis
Method: Having achieved this proof-of-concept urine monitoring of protease activity with a single substrate, the entire ABN library was tested in vivo with an emphasis on identifying reporters to differentiate mice bearing more aggressive (PC3) versus less aggressive (22Rv1) xenografts. To quantify cleavage of the entire library in urine, the substrates were barcoded using a next generation of mass-encoded reporters built upon the isobar coded reporters method (Kwong et al., Nat Biotechnol 31:63-70 (2013)). This […] sensor library enables increased multiplexing by uniquely labeling each peptide with stable 13C and 15N atoms, allowing for quantitation of reporter barcodes across a large dynamic range using liquid chromatography-tandem mass spectrometry (Table 8). To account for variability in glomerular filtration rate, urine volume, and hydration state, a free reporter (not coupled to PEG) was co-injected. The 19-plex ABN library was serially injected i.v. to PC3 tumor-bearing mice over the course of tumor development. […] Next, the ability of the 19-plex library to classify PC3 from 22Rv1 tumor-bearing mice was sought to be determined. Using the mass-encoded reporters to examine the cleavage of each individual sensor, an early time point was focused on and it was observed that several substrates were differentially cleaved between animals bearing similarly sized xenografts ( 100 mm3) from the more (PC3) versus less aggressive (22Rv1) cell lines. Overall, the cleavage profile differences between the two cohorts agree with each cell line's protease expression patterns and the substrate specificity of each protease. […] To simplify urinalysis, these ABNs were designed to release biotinylated urinary reporters to enable ELISA-based readouts. […] Additionally, PSA measurements in mice may overestimate its sensitivity, as there is no mouse homolog of PSA (Lundwall et al., Biol Chem 387:243-249 (2006)). It was next tested whether the three-plex iRGD-ABNs could classify distinct prostate cancer tumors. […] Based on ROC curve analysis, the […] ABNs classified the mice bearing the more aggressive PC3-derived tumors as distinct from 22Rv1-bearing mice. […] Differential expression analysis was performed on TCGA data using […]. Survival analysis was performed using cBioPortal. SOMAscan was performed at the Beth Israel Deaconess Medical Center (BIDMC) Genomics Proteomics Core. […] Sigma) at 1 μM in PBS. • Animal Models. All animal studies were approved by Massachusetts Institute of Technology's Committee on Animal Care (CAC) (Protocol 0417-025-20). Four- to six-week-old male NCr nude mice (Taconic) were injected bilaterally with 3.5×10^6 PCa cells per flank in a 1:1 ratio of complete media and Matrigel (354234; Corning). Baseline urine measurement was obtained before xenograft implantation. Histology sectioning and staining was performed at KI Histology Core.

[2] = test system: PC3 cell line supernatant; experiment: Cleavage of 19-plex fluorogenic ABNs in PC3 supernatant; format: cell-based, human; details: for cleavage by PC3 supernatant compared with 22Rv1: in vitro, fluorogenic; for overall cleavage activity in the presence of inhibitor: PC3 supernatant, 19-plex fluorogenic ABNs
serine hydrolase = test system: serine hydrolase; parameters: species or system human
[3] = test system: 22Rv1 cell line supernatant; experiment: Cleavage of 19-plex fluorogenic ABNs in 22Rv1 supernatant; format: cell-based, human
[4] = test system: 22Rv1 xenograft tumor homogenates; experiment: Protease activity of tumor homogenates ex vivo; format: biochemical, mice
22Rv1 xenografts = experiment: Urinary reporter signal of ABNs in 22Rv1 xenograft-bearing mice; format: in vivo
MMP activity = experiment: FRET peptide substrate-cleavage assay in prostate tumor and NAT tissue samples; format: biochemical; details: human prostate tumor and matched NAT
Method: An assay was developed to measure protease activity in tissue samples. The mouse samples were excised, frozen in LN2, homogenized in PBS at 200 mgs/mL, and incubated with Q7 (FIG. 14A). In situ tissue zymography assays were additionally developed for frozen sections. Five sets of clinical human samples (both tumor and normal adjacent) were examined (FIG. 14B). The remaining fraction was tested on FRET substrates. Human sample cleavage was analyzed with substrate cleavage assays (Table 3). It was observed that many substrates are differentially cleaved in cancer tissue versus normal adjacent tissue.
As MP ABPs are less robust than serine ABPs, a FRET peptide substrate-cleavage assay was used to assay for MMP activity in the same tissue set evaluated by SOMAscan. Given the minimal tissue material available, each sample was evaluated with only a subset of substrates in duplicate. Multiple substrates were cleaved to a greater extent in tumor samples.

tumor protease activity = experiment: In vivo protease activity imaging study; parameters: species or system mice; details: red-shifted FRET pair
[5] = PEG-coupled quenched substrate, protease that cleaves it

PB13: protease nanosensor, broadly cleaved KLK substrate, SEQ ID NO: 9 (Biotin-EGVNDNEEGFFSARKGSGSKIIGGGC(PEG); reading uncertain; also: TAMRA at positions 15-16)
substrate specificity of nanosensor (MMP13, uPA, KLK, MMP): broadly cleaved KLK substrate

PEG-T24-Q: quenched FRET peptide substrate T24 conjugated to PEG core (5FAM-GGLGPKGQTGK(CPQ2)[PEG2′]C; also: conjugated to PEG core, attachment not given here)
Top hit [1, 5]: MMP13

T24: MMP13 peptide substrate (GGLGPKGQTG) of ABN library, reporter R3_06 (also: reporter R3_06 attached) [Substrate T24]
relative urine signal, PC3 compared with 22Rv1 (PC3 xenografts): higher relative urine signal change; also recorded: elevated
cleavage (individual reporter readout), PC3 relative to 22Rv1 (PC3 xenografts; three-plex iRGD-ABNs): significantly greater cleavage
classification of PC3-bearing from 22Rv1-bearing mice (PC3 xenografts; three-plex iRGD-ABNs): classified
cleavage by PC3 supernatant compared with 22Rv1 [2]: cleaved differentially
protease that cleaves the substrate in vitro [1]: MMP13

PB2: protease nanosensor, uPA substrate, SEQ ID NO: 8 (Biotin-EGVNDNEEGFFSARKGGGSGRSANAKGC(PEG); reading uncertain; also: FAM label at residues 15-16, exact place not given here)
substrate specificity of nanosensor (MMP13, uPA, KLK, MMP): uPA substrate

NCCc1ccc(S(=O)(=O)F)cc1 [AEBSF]
effect of inhibitor on FP-TAMRA labeling (serine hydrolase): mitigated
overall cleavage activity in the presence of inhibitor [2]: reduced
overall cleavage activity in the presence of inhibitor [3]: reduced

PEG-T7-Q: quenched FRET peptide substrate T7 conjugated to PEG core (5FAM-GGPLGVRGKK(CPQ2)[PEG2′]C; also: conjugated to PEG core, attachment not given here)
Second hit [1, 5]: MMP26
Top hit [1, 5]: MMP9

T39: uPA peptide substrate (GGGSGRSANAKG) of ABN library, reporter R3_09 (also: reporter R3_09 attached) [Substrate T39]
relative urine signal, PC3 compared with 22Rv1 (PC3 xenografts): higher relative urine signal change; also recorded: elevated
cleavage (individual reporter readout), PC3 relative to 22Rv1 (PC3 xenografts; three-plex iRGD-ABNs): significantly greater cleavage
classification of PC3-bearing from 22Rv1-bearing mice (PC3 xenografts; three-plex iRGD-ABNs): classified
cleavage by PC3 supernatant compared with 22Rv1 [2]: cleaved differentially
protease that cleaves the substrate in vitro [1]: uPA

CNC(=O)[C@@H](NC(=O)[C@H](CC(C)C)[C@H](O)C(=O)NO)C(C)(C)C [marimastat]
T7 sensor cleavage in the presence of inhibitor [4]: diminished
overall cleavage activity in the presence of inhibitor [2]: reduced
overall cleavage activity in the presence of inhibitor [3]: reduced

T7: MMP-sensing peptide substrate (GPLGVRGK) of ABN library, reporter R3_04 (also: reporter R3_04 attached) [Substrate T7]
urine signal (22Rv1 xenografts; 19-plex library, 22Rv1 mice): gave rise to urine signals
urinary signal (22Rv1 xenografts; single sensor, biotinylated reporter, 22Rv1 xenograft-bearing mice): increased urinary signal
urine signal relative to control animals (22Rv1 xenografts; three-plex iRGD-ABNs, individual reporter, 22Rv1-bearing): elevated relative to control animals
cleavage signal, tumor vs NAT samples (MMP activity): signal was elevated across the majority of tumor samples
urine signal (PC3 xenografts; 19-plex library, PC3 mice): gave rise to urine signals
classification of PC3-bearing from 22Rv1-bearing mice (PC3 xenografts; three-plex iRGD-ABNs): did not classify between the two cohorts
urine signal relative to control animals (PC3 xenografts; three-plex iRGD-ABNs, individual reporter, PC3-bearing): elevated relative to control animals

(QSY21)-GGPLGVRGKK(Cy5)-(PEG2)-C (QSY21-GGPLGVRGKK(Cy5)[PEG2′]C) [red-shifted FRET paired T7 substrate]
fluorescence signal, tumor compared with liver (tumor protease activity): greater fluorescence signal in the tumor compared with the liver

PEG-T39-Q: quenched FRET peptide substrate T39 conjugated to PEG core (5FAM-GGGSGRSANAKGK(CPQ2)[PEG2′]GC; also: conjugated to PEG core, attachment not given here)
Top hit [1, 5]: uPA
